From patent US20130202698A1 (NANJING SANHOME PHARMACEUTICAL CO., LTD., priority 2005, published 2013)
Read-outs that look alike come from different tables or passages of the source. Marks after values point to notes of the source that are not given here.

Key:
amoeba dysentery = assay: Pharmacodynamic study of cecum amoeba infection in mice; type: in vivo; settings: male ICR mice infected in the cecum, drug i.v. at 24, 48, 72 hours; for ED50: Mus musculus, iv, dosage of 50% inhibition rate; for ED90: dosage of 90% inhibition rate
Method: Male ICR mice were injected with liquid containing about 200,000 units of amoeba dysentery in the cecum. The mice were randomly divided into 19 groups, each with 10. The mice in solvent control group were given blank solutions by tail vein injection. The treatment groups were injected intravenously at 24, 48, 72 hours after infection with active drugs. The animals were killed six days after infection. Intestinal mucosal biopsies were done, and comparative studies of different stages of the amoeba were studied under microscope. […] Calculated the dosage of 50% (ED50) and 90% (ED90) inhibition rate.

righting reflex = assay: Hypnotic effect, loss of righting reflex; type: in vivo, mice
Method: Thirty minutes after drug administration, the number of animals losing righting reflex (LORR) was recorded. […] Sodium pentobarbital was used at […] as the positive control.

[1] = Phase II clinical trial, oral tablets, departments of stomatology, adverse events; type: in vivo, human
Method: Double-blinded randomized controlled trials were carried out to compare the adverse events of oral levo-ornidazole with racemate treatment groups. Two separate studies were conducted for patients with infections from either department of stomatology or obstetrics/gynecology.

trichomonas vaginalis = assay: Pharmacodynamic study of trichomonas vaginalis infection in mice; type: in vivo; design: ED90: unit not given beside the values; settings: for ED50: Trichomonas vaginalis; for ED90: dosage of 90% inhibition rate
Method: Male ICR mice were injected intraperitoneally with liquid containing 0.4 ml 3×10^6 trichomonas vaginalis (trichomonas vaginalis from clinical patients). The mice were randomly divided into 19 groups, each with 10. The mice in solvent control group were given blank solutions by tail vein injection. The treatment groups were injected intravenously at 2, 24, 48, and 72 hours after infection with active drugs. The animals were killed five days after infection. Washing offal, fluid was centrifuged, and microscopically examined for life larvae. Autopsy was performed to determine whether there was any visceral and abdominal abscess, microscopic examination was conducted to determine the number of live trichomoniasis in the abscess. […] The abscess formation was inhibited in the treatment groups[…] and the number of live trichomoniasis was reduced. Calculate the dosage of 50% (ED50) and 90% (ED90) inhibition rate.

[2] = Acute toxicity in mice (LD50); settings: mouse, in vivo
Beagle dogs = system: Beagle dogs
Method: In the studies, male and female Beagle dogs were treated at high doses of ornidazole enantiomers for 2 weeks, and then sacrificed for anatomical and pathological examinations. […] All the doses were administered in the levo- and racemate groups.

[3] = system: Remefline-induced convulsion; assay: Anticonvulsant effects on Remefline-induced convulsion in mice; type: in vivo
Method: In one experiment, the anticonvulsant effects of levo- and dextro-ornidazole against drug-induced convulsions in mice were compared. In four different animal convulsion models, mice were treated by four different seizure-inducing agents, including Remefline, Strychnine, isoniazid, thiosemicarbazide. Levo- or dextro-ornidazole was administered along with the seizure-inducing agents, and several outcomes were measured, including rate of convulsion, mortality rate, time to convulsion (latency), and time to death. Diazepam was used as a positive anticonvulsant control.
(§1) Mice are randomized into 4 treatment groups (n=10 with half male and half female): dextro- or levo-ornidazole (dosage 40, 80, 160 mg/kg), vehicle control group (15% propylene glycol in 0.9% sodium chloride, 20 mL/kg) and the positive control group. Animals are treated with known convulsion-inducing agents, followed by the drug or vehicle control given intravenously. The dose volume is 20 mL/kg with an infusion rate of 0.2 mL/10 seconds.

[4] = system: thiosemicarbazide-induced convulsion; assay: Anticonvulsant effects on thiosemicarbazide-induced convulsion in mice; type: in vivo; settings: n=10; for Convulsion Latency / Time to Death: Mean ± SD; for Mortality Rate / Rate of Convulsion: 160 mg/kg i.v.
Method: as §1, with “seconds. The anticonvulsant effects are observed and recorded (see Tables 2-6).” for “seconds.”

[5] = human phase II, oral, stomatology
[6] = male ICR mice infected intraperitoneally, drug i.v. at 2, 24, 48, 72 hours
[7] = both, mouse, in vivo, 40 mg/kg, 30 min
[8] = both, mouse, in vivo, 80 mg/kg, 30 min
[9] = male ICR mice infected intraperitoneally, drug i.v. at 2, 24, 48, 72 hours, dosage of 50% inhibition rate, read-out: ED50

Cc1ncc([N+](=O)[O-])n1CC(O)CCl (racemic) [Racemic ornidazole, 1-(3-Chloro-2-hydroxypropyl)-2-methyl-5-nitroimidazole]
ED50 (amoeba dysentery): 11.4 mg/kg | ED90 (amoeba dysentery): 55.2 | Number of animals Loss of Righting Flex 30 min Post-dose (righting reflex; mice, 40 mg/kg, 10 animals): 0 | Number of animals Loss of Righting Flex 30 min Post-dose (righting reflex; mice, 80 mg/kg, 10 animals): 0 | Number of animals Loss of Righting Flex 30 min Post-dose (righting reflex; mice, 160 mg/kg, 10 animals, listed as Racemate): 6*^# | Number of animals Loss of Righting Flex 30 min Post-dose (righting reflex; mice, 160 mg/kg, 10 animals, listed as racemate): 6 | Bloating, # of Patients with AE [1, 5]: 1 | Bloating, Incidence (%) [1, 5]: 0.71% | Constipation, # of Patients with AE [1, 5]: 0 | Constipation, Incidence (%) [1, 5]: 0.00% | Drowsy, # of Patients with AE [1, 5]: 3 | Drowsy, Incidence (%) [1, 5]: 2.13% | Dry mouth, # of Patients with AE [1, 5]: 1 | Dry mouth, Incidence (%) [1, 5]: 0.71% | Headache, # of Patients with AE [1, 5]: 1 | Headache, Incidence (%) [1, 5]: 0.71% | Hypersomnia, # of Patients with AE [1, 5]: 6 | Hypersomnia, Incidence (%) [1, 5]: 4.26% | Hypodynamia, # of Patients with AE [1, 5]: 1 | Hypodynamia, Incidence (%) [1, 5]: 0.71% | Loss of appetite, # of Patients with AE [1, 5]: 1 | Loss of appetite, Incidence (%) [1, 5]: 0.71% | Nausea, # of Patients with AE [1, 5]: 4 | Nausea, Incidence (%) [1, 5]: 2.84% | Palpitation, # of Patients with AE [1, 5]: 1 | Palpitation, Incidence (%) [1, 5]: 0.71% | Pruritus, # of Patients with AE [1, 5]: 1 | Pruritus, Incidence (%) [1, 5]: 0.71% | Rash, # of Patients with AE [1, 5]: 2 | Rash, Incidence (%) [1, 5]: 1.42% | Sourregurgitation, # of Patients with AE [1, 5]: 1 | Sourregurgitation, Incidence (%) [1, 5]: 0.71% | Stomach discomfort, # of Patients with AE [1, 5]: 7 | Stomach discomfort, Incidence (%) [1, 5]: 4.96% | Stupor, # of Patients with AE [1, 5]: 1 | Stupor, Incidence (%) [1, 5]: 0.71% | Total incidence rate of adverse events [1, 5]: 17.73% | Vertigo, # of Patients with AE [1, 5]: 2 | Vertigo, Incidence (%) [1, 5]: 1.42% | Vomiting, # of Patients with AE [1, 5]: 1 | Vomiting, Incidence (%) [1, 5]: 0.71% | Patients with adverse events (total) ([1]; human phase II, oral, stomatology, out of 139 (levo) / 141 (racemate) patients): 25 patients | ED50 (trichomonas vaginalis; 72 h): 11.3 mg/kg | ED90 (trichomonas vaginalis; [6]): 43.8 | LD50 ([2]; intravenous injection): 306 mg/kg | LD50 ([2]; ip, intraperitoneal injection): 1120 mg/kg | LD50 ([2]; oral gavage): 769 mg/kg | Toxicity Severity (Beagle dogs; Beagle dogs, I.V. 200 mg/kg for 2 weeks): Moderate

Cc1ncc([N+](=O)[O-])n1C[C@@H](O)CCl [D-ornidazole, R-(+)-ornidazole]
ED50 (amoeba dysentery): 13.3 mg/kg | ED90 (amoeba dysentery): 64.4 | Mortality Rate ([3]; 40 mg/kg i.v., n=10): 10/10 | Rate of Convulsion ([3]; 40 mg/kg i.v., n=10): 10/10 | Rate of Convulsion ([3]; 80 mg/kg i.v., n=10): 5/10* | Mortality Rate ([3]; 80 mg/kg i.v., n=10, listed as Dextro-ornidazole, 80 mg/kg): 0/10** | Mortality Rate ([3]; 80 mg/kg i.v., n=10, listed as dextro-ornidazole, 80 mg/kg): 0/10 | Mortality Rate ([3]; 160 mg/kg i.v., n=10): 0/10** | Rate of Convulsion ([3]; 160 mg/kg i.v., n=10): 0/10** | Number of animals Loss of Righting Flex 30 min Post-dose (righting reflex; [7]): 0 | Number of animals Loss of Righting Flex 30 min Post-dose (righting reflex; [8]): 0 | Plasma protein binding, levo- vs dextro-ornidazole (plasma protein): Similar | ED50 (trichomonas vaginalis; [9]): 14.1 mg/kg | ED90 (trichomonas vaginalis; [6]): 54.5 | Toxicity Severity (Beagle dogs; dog, in vivo, iv, 200 mg/kg): Severe | Convulsion Latency ([4]; 40 mg/kg i.v.): 94.3 ± 25.1 min | Time to Death ([4]; 40 mg/kg i.v.): 153.9 ± 43.7 min | Convulsion Latency ([4]; 80 mg/kg i.v.): 121.8 ± 16.8 min | Time to Death ([4]; 80 mg/kg i.v.): 213.6 ± 56.5 min | Mortality Rate [4]: 2/10** | Rate of Convulsion [4]: 3/10**

Cc1ncc([N+](=O)[O-])n1C[C@H](O)CCl [L-ornidazole, S-(−)-ornidazole]
ED50 (amoeba dysentery): 10.5 mg/kg | ED90 (amoeba dysentery): 41.2 | Mortality Rate ([3]; 40 mg/kg i.v., n=10): 10/10 | Rate of Convulsion ([3]; 40 mg/kg i.v., n=10): 10/10 | Rate of Convulsion ([3]; 80 mg/kg i.v., n=10): 10/10^# | Mortality Rate ([3]; 80 mg/kg i.v., n=10, listed as Levo-ornidazole, 80 mg/kg): 10/10^## | Mortality Rate ([3]; 80 mg/kg i.v., n=10, listed as levo-ornidazole, 80 mg/kg): 10/10 | Mortality Rate ([3]; 160 mg/kg i.v., n=10): 1/10** | Rate of Convulsion ([3]; 160 mg/kg i.v., n=10): 9/10^## | Number of animals Loss of Righting Flex 30 min Post-dose (righting reflex; [7]): 0 | Number of animals Loss of Righting Flex 30 min Post-dose (righting reflex; [8]): 0 | Number of animals Loss of Righting Flex 30 min Post-dose (righting reflex; both, mouse, in vivo, 160 mg/kg, 30 min): 0 | Number of animals Loss of Righting Flex 30 min Post-dose (righting reflex; mouse, in vivo, 160 mg/kg): none | Plasma protein binding, levo- vs dextro-ornidazole (plasma protein): Similar | Bloating, # of Patients with AE ([1]; human, in vivo, po): 0 | Bloating, Incidence (%) ([1]; human, in vivo, po): 0.00% | Constipation, # of Patients with AE ([1]; human, in vivo, po): 1 | Constipation, Incidence (%) ([1]; human, in vivo, po): 0.72% | Drowsy, # of Patients with AE ([1]; human, in vivo, po): 0 | Drowsy, Incidence (%) ([1]; human, in vivo, po): 0.00% | Dry mouth, # of Patients with AE ([1]; human, in vivo, po): 0 | Dry mouth, Incidence (%) ([1]; human, in vivo, po): 0.00% | Headache, # of Patients with AE ([1]; human, in vivo, po): 0 | Headache, Incidence (%) ([1]; human, in vivo, po): 0.00% | Hypersomnia, # of Patients with AE ([1]; human, in vivo, po): 0 | Hypersomnia, Incidence (%) ([1]; human, in vivo, po): 0.00^# % | Hypodynamia, # of Patients with AE ([1]; human, in vivo, po): 0 | Hypodynamia, Incidence (%) ([1]; human, in vivo, po): 0.00% | Loss of appetite, # of Patients with AE ([1]; human, in vivo, po): 0 | Loss of appetite, Incidence (%) ([1]; human, in vivo, po): 0.00% | Nausea, # of Patients with AE ([1]; human, in vivo, po): 4 | Nausea, Incidence (%) ([1]; human, in vivo, po): 2.88% | Palpitation, # of Patients with AE ([1]; human, in vivo, po): 0 | Palpitation, Incidence (%) ([1]; human, in vivo, po): 0.00% | Patients with adverse events (total) ([1]; human, in vivo, po): 5 patients | Pruritus, # of Patients with AE ([1]; human, in vivo, po): 0 | Pruritus, Incidence (%) ([1]; human, in vivo, po): 0.00% | Rash, # of Patients with AE ([1]; human, in vivo, po): 0 | Rash, Incidence (%) ([1]; human, in vivo, po): 0.00% | Sourregurgitation, # of Patients with AE ([1]; human, in vivo, po): 0 | Sourregurgitation, Incidence (%) ([1]; human, in vivo, po): 0.00% | Stomach discomfort, # of Patients with AE ([1]; human, in vivo, po): 0 | Stomach discomfort, Incidence (%) ([1]; human, in vivo, po): 0.00^# % | Stupor, # of Patients with AE ([1]; human, in vivo, po): 0 | Stupor, Incidence (%) ([1]; human, in vivo, po): 0.00% | Total incidence rate of adverse events ([1]; human, in vivo, po): 3.60% | Vertigo, # of Patients with AE ([1]; human, in vivo, po): 0 | Vertigo, Incidence (%) ([1]; human, in vivo, po): 0.00% | Vomiting, # of Patients with AE ([1]; human, in vivo, po): 0 | Vomiting, Incidence (%) ([1]; human, in vivo, po): 0.00% | ED50 (trichomonas vaginalis; [9]): 9.1 mg/kg | ED90 (trichomonas vaginalis; [6]): 32.6 | LD50 ([2]; intravenous injection): 332 mg/kg | LD50 ([2]; ip, intraperitoneal injection): 1380 mg/kg | LD50 ([2]; oral gavage): 1070 mg/kg | Toxicity Severity (Beagle dogs; dog, in vivo, iv, 200 mg/kg): Mild | Convulsion Latency ([4]; 40 mg/kg i.v.): 77.1 ± 16.8 min | Time to Death ([4]; 40 mg/kg i.v.): 122.6 ± 29.8 min | Convulsion Latency ([4]; 80 mg/kg i.v.): 85.0 ± 30.9 min | Time to Death ([4]; 80 mg/kg i.v.): 116.7 ± 38.7 min | Mortality Rate [4]: 9/10^## | Rate of Convulsion [4]: 9/10^##
